We go through seven molecules from the supplement of paper PMC7661543.

Holding throughout (assay): relative cell number vs DMSO control (72 h) (% of DMSO); higher = less growth inhibition (more cells)
Holding throughout (details): sgRNA knockout: sgNT

In one assay the test system is HCC-38. The protocol:
(§1)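 QMAP-Seq: a pool of 5 breast cancer cell lines (ZR-75-1, SKBR3, HCC-38, MDA-MB-231, BT-20), each carrying 12 doxycycline-inducible Cas9 sgRNA perturbations (11 knockouts plus non-targeting sgNT), was treated with compounds for 72 h at four 10-fold doses (10 nM-10 uM or 1 nM-1 uM range). Barcodes were amplified and sequenced, and cell number was interpolated from 293T spike-in standard curves. The result is expressed as % of the median of DMSO wells. Two biological replicates.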

A further assay relates to MDA-MB-231. The protocol: as §1
A further assay concerns ZR-75-1. The protocol: as §1
For another assay, the system named is BT-20. The protocol:
as §1

The subject of another assay is SKBR3. The protocol: as §1

Structures are written as SMILES. ± gives the standard deviation of the averaged measurements.

As to `O=C(Cc1ccc(-c2ccc(OCCN3CCOCC3)cc2)cn1)NCc1ccccc1` [KX2391], the relative cell number with HCC-38 (10 nM) came to 139 ± 16; with HCC-38 (100 nM), 24.4 ± 0.93; in the assay with HCC-38 (1000 nM) it was 24.1 ± 1.9; in the assay on HCC-38 (10000 nM), 30.8 ± 3.4; with MDA-MB-231 (10 nM) it was 108 ± 56; in the assay on MDA-MB-231 (100 nM), 30.3 ± 9.2. Further, the relative cell number turned out to be 18 ± 2.3 in the assay on MDA-MB-231 (1000 nM); 19.78 ± 0.15 in the assay with MDA-MB-231 (10000 nM); 132 ± 43 with ZR-75-1 (10 nM); 24.8 ± 2.5 in the assay on ZR-75-1 (100 nM); 24.6 ± 4.9 in the assay with ZR-75-1 (1000 nM); 17.8 ± 8.4 with ZR-75-1 (10000 nM). In addition, the relative cell number is 127 ± 31 in the assay on BT-20 (10 nM); 36.5 ± 7.8 with BT-20 (100 nM); 33.3 ± 7 in the assay with BT-20 (1000 nM); 31.8 ± 10 with BT-20 (10000 nM); 91.5 ± 17 with SKBR3 (10 nM); 17.8 ± 2 in the assay on SKBR3 (100 nM). The relative cell number in the assay on SKBR3 (1000 nM) was determined as 8.71 ± 3; with SKBR3 (10000 nM), 10.3 ± 2.5.
Take `O=c1cc(-c2cccc3c2Sc2ccccc2S3)oc(N2CCOCC2)c1`: the relative cell number in the assay on HCC-38 (10 nM) turned out to be 91.6 ± 7.9; in the assay on HCC-38 (100 nM), 79.2 ± 1.7; in the assay with HCC-38 (1000 nM), 88.4 ± 18; in the assay on HCC-38 (10000 nM), 82.7 ± 9.9; with MDA-MB-231 (10 nM), 119 ± 4.4; with MDA-MB-231 (100 nM), 77.3 ± 7.3. The relative cell number with MDA-MB-231 (1000 nM) was found to be 89.5 ± 12; in the assay with MDA-MB-231 (10000 nM), 46.8 ± 19; in the assay on ZR-75-1 (10 nM), 81.3 ± 28; in the assay with ZR-75-1 (100 nM), 98.8 ± 25; in the assay with ZR-75-1 (1000 nM) it was 75.5 ± 26; with ZR-75-1 (10000 nM) it was 58.3 ± 15. The relative cell number in the assay on BT-20 (10 nM) came out at 76.9 ± 1.4; in the assay on BT-20 (100 nM), 116 ± 4.1; with BT-20 (1000 nM), 110.8 ± 0.94; in the assay on BT-20 (10000 nM), 109 ± 22; with SKBR3 (10 nM), 85.1 ± 17; in the assay on SKBR3 (100 nM), 94.4 ± 12. Also, the results for the relative cell number with SKBR3 (1000 nM) and in the assay with SKBR3 (10000 nM) were 115 ± 17 and 54.3 ± 6.1, respectively.
As for `Cc1nc(Nc2ncc(C(=O)Nc3c(C)cccc3Cl)s2)cc(N2CCN(CCO)CC2)n1` [Dasatinib], the relative cell number came out at 96.2 ± 12 with HCC-38 (10 nM); 66.2 ± 9.8 in the assay with HCC-38 (100 nM); 65.7 ± 4.4 in the assay with HCC-38 (1000 nM); 32.9 ± 2.9 in the assay with HCC-38 (10000 nM); 100 ± 5.3 in the assay on MDA-MB-231 (10 nM); 53.1 ± 6.1 in the assay on MDA-MB-231 (100 nM). The relative cell number is 56 ± 14 in the assay on MDA-MB-231 (1000 nM); 13.8 ± 4.3 with MDA-MB-231 (10000 nM); 107 ± 27 in the assay with ZR-75-1 (10 nM); 75.8 ± 34 in the assay with ZR-75-1 (100 nM); 65.4 ± 11 in the assay on ZR-75-1 (1000 nM); 35.9 ± 0.91 in the assay with ZR-75-1 (10000 nM). For the same molecule, the relative cell number in the assay on BT-20 (10 nM) was found to be 72.1 ± 28; in the assay on BT-20 (100 nM) it was 82.2 ± 4.3; with BT-20 (1000 nM), 105 ± 1.7; in the assay on BT-20 (10000 nM), 63.9 ± 7.7; in the assay on SKBR3 (10 nM), 53.8 ± 31; in the assay on SKBR3 (100 nM), 96.7 ± 42. For the same molecule, the relative cell number worked out at 107 ± 28 in the assay with SKBR3 (1000 nM) and 41.6 ± 1.3 in the assay on SKBR3 (10000 nM).
Consider `OCCn1cc(-c2ccc3c(c2)CC/C3=N\O)c(-c2ccncc2)n1` [GDC0879], for which the relative cell number in the assay on HCC-38 (10 nM) was 104 ± 17; with HCC-38 (100 nM), 124 ± 10; in the assay on HCC-38 (1000 nM), 134 ± 12; in the assay with HCC-38 (10000 nM), 107 ± 4.3; with MDA-MB-231 (10 nM) it was 114 ± 15; in the assay with MDA-MB-231 (100 nM), 92 ± 2.5. Moreover, the relative cell number with MDA-MB-231 (1000 nM) was found to be 106 ± 4.8; in the assay with MDA-MB-231 (10000 nM), 105 ± 5.9; in the assay on ZR-75-1 (10 nM), 128.7 ± 1.1; in the assay with ZR-75-1 (100 nM), 137 ± 11; with ZR-75-1 (1000 nM) it was 131 ± 12; with ZR-75-1 (10000 nM) it was 122 ± 81. The relative cell number was 103 ± 17 in the assay on BT-20 (10 nM); 112 ± 4.5 with BT-20 (100 nM); 130 ± 8 in the assay on BT-20 (1000 nM); 110 ± 1.5 with BT-20 (10000 nM); 114 ± 27 with SKBR3 (10 nM); 151 ± 3.4 in the assay with SKBR3 (100 nM). The results for the relative cell number with SKBR3 (1000 nM) and in the assay with SKBR3 (10000 nM) were 81.8 ± 29 and 110 ± 11, respectively.
As to `CCn1c(=O)c2c(nc(/C=C/c3ccc(OC)c(OC)c3)n2C)n(CC)c1=O` [Istradefylline], the relative cell number is 88.28 ± 0.69 in the assay on HCC-38 (10 nM); 99.3 ± 24 in the assay with HCC-38 (100 nM); 93.3 ± 8.3 with HCC-38 (1000 nM); 106 ± 2.4 in the assay with HCC-38 (10000 nM); 86 ± 1.8 in the assay on MDA-MB-231 (10 nM); 146 ± 30 with MDA-MB-231 (100 nM). The relative cell number in the assay with MDA-MB-231 (1000 nM) stood at 93.8 ± 5.8; in the assay on MDA-MB-231 (10000 nM), 105 ± 43; in the assay on ZR-75-1 (10 nM) it was 128 ± 37; in the assay with ZR-75-1 (100 nM), 114 ± 3.4; in the assay with ZR-75-1 (1000 nM), 110 ± 7.6; with ZR-75-1 (10000 nM), 94.9 ± 19. For the same molecule, the relative cell number was determined as 109 ± 12 with BT-20 (10 nM); 104 ± 5.7 in the assay on BT-20 (100 nM); 94.8 ± 12 with BT-20 (1000 nM); 106 ± 8.2 in the assay with BT-20 (10000 nM); 80.5 ± 18 in the assay with SKBR3 (10 nM); 84.2 ± 5.3 with SKBR3 (100 nM). In addition, the relative cell number is 99.5 ± 23 in the assay on SKBR3 (1000 nM) and 112 ± 15 in the assay on SKBR3 (10000 nM).
Regarding `COc1cc(C(=O)N2CCC(N3CCN(C)CC3)CC2)ccc1Nc1ncc2c(n1)N(C)c1ccccc1C(=O)N2C` [LRRK2IN1], the relative cell number is 100 ± 8.9 in the assay with HCC-38 (10 nM); 84.8 ± 7 in the assay on HCC-38 (100 nM); 67.3 ± 4 with HCC-38 (1000 nM); 42.4 ± 1.1 in the assay on HCC-38 (10000 nM); 123 ± 3.5 in the assay on MDA-MB-231 (10 nM); 96.6 ± 1.3 in the assay on MDA-MB-231 (100 nM). For the same molecule, the relative cell number in the assay on MDA-MB-231 (1000 nM) came out at 44.2 ± 7.9; with MDA-MB-231 (10000 nM) it was 16 ± 2.8; in the assay on ZR-75-1 (10 nM) it was 106 ± 7; with ZR-75-1 (100 nM), 152 ± 59; in the assay with ZR-75-1 (1000 nM) it was 69.4 ± 3; in the assay with ZR-75-1 (10000 nM), 19.1 ± 5.2. Also, the relative cell number with BT-20 (10 nM) was 116 ± 14; in the assay on BT-20 (100 nM) it was 93.7 ± 7.9; in the assay with BT-20 (1000 nM) it was 93.8 ± 15; with BT-20 (10000 nM) it was 38.2 ± 4; in the assay on SKBR3 (10 nM), 111 ± 44; with SKBR3 (100 nM), 70.9 ± 6. For the same molecule, the relative cell number with SKBR3 (1000 nM) turned out to be 71 ± 31; in the assay with SKBR3 (10000 nM) it was 32.9 ± 13.
Regarding `Nc1ccn([C@@H]2O[C@H](CO)[C@@H](O)C2(F)F)c(=O)n1` [Gemcitabine], the relative cell number came out at 20.2 ± 3.4 in the assay with HCC-38 (10 nM); 10.5 ± 0.58 in the assay on HCC-38 (100 nM); 12.9 ± 3.4 in the assay with HCC-38 (1000 nM); 11.1 ± 3.8 with HCC-38 (10000 nM); 18.5 ± 3.2 with MDA-MB-231 (10 nM); 20.3 ± 7.1 in the assay on MDA-MB-231 (100 nM). Also, the relative cell number with MDA-MB-231 (1000 nM) came out at 15.6 ± 1.6; in the assay with MDA-MB-231 (10000 nM), 14 ± 3.5; with ZR-75-1 (10 nM), 36.6 ± 15; in the assay with ZR-75-1 (100 nM), 26.4 ± 0.51; in the assay with ZR-75-1 (1000 nM), 33.9 ± 6; in the assay on ZR-75-1 (10000 nM), 30.5 ± 2.7. Also, the relative cell number with BT-20 (10 nM) was found to be 68 ± 3.1; in the assay on BT-20 (100 nM), 34 ± 5.5; in the assay on BT-20 (1000 nM), 28.3 ± 5; in the assay with BT-20 (10000 nM), 23.9 ± 15; with SKBR3 (10 nM) it was 26.2 ± 2.4; in the assay on SKBR3 (100 nM) it was 7.58 ± 1.7. The relative cell number in the assay on SKBR3 (1000 nM) worked out at 11.1 ± 5.8; in the assay on SKBR3 (10000 nM), 14.1 ± 6.9.
